Experiments:
[1] = tested on: Dictyostelium discoideum; assay: Compound was evaluated for nucleoside diphosphate kinase (NDP-kinase) activity relative to Adenosine triphosphate (100); parameters: concentration or dose not given beside the values
[2] = tested on: Dictyostelium discoideum; assay: Compound was evaluated for nucleoside diphosphate kinase (NDP-kinase) activity

O=P(O)(O)OP(=O)(O)OP(=O)(O)OC[C@H]1O[C@@H](n2cnc3cc(Cl)c(Cl)cc32)[C@H](O)[C@@H]1O
Relative activity [1]: 145%

O=P(O)(O)OP(=O)(O)OP(=O)(O)OC[C@H]1O[C@@H](n2cnc3c(Cl)ncnc32)[C@H](O)[C@@H]1O
Relative activity [1]: 110%

O=P(O)(O)OP(=O)(O)OP(=O)(O)OC[C@H]1O[C@@H](n2cnc3cncnc32)[C@H](O)[C@@H]1O
Relative activity [1]: 130%

Nc1ncnc2c1nc(Cl)n2[C@@H]1O[C@H](COP(=O)(O)OP(=O)(O)OP(=O)(O)O)[C@@H](O)[C@H]1O
Relative activity [1]: 140%

Nc1ncnc2c1ccn2[C@@H]1O[C@H](COP(=O)(O)OP(=O)(O)OP(=O)(O)O)[C@@H](O)[C@H]1O
Relative activity [1]: 155%

Nc1ncnc2c1ncn2[C@@H]1O[C@H](COP(=O)(O)OP(=O)(O)OP(=O)(O)O)[C@@H](O)[C@H]1O
Relative activity [2]: 100%
